System: Female Wistar rats
Test: Activity test in ovariectomized, right sciatic nerve amputated rats: femur bone density and serum calcium after 6 weeks of oral administration
Type: in vivo
Conditions: for Serum calcium concentration / Bone density: 5 days per week for 6 weeks; for Serum calcium concentration: blood drawn the day after final administration; for Bone density: right femur, ash weight/volume, ovariectomy and sciatic nerve amputation; for increase in bone density / increase in serum calcium concentration: in words, compared with known 1α-hydroxy vitamin D₃, summary of Table 1
From the text: Seventy two rats were subjected to bilateral ovariectomy and right sciatic nerve amputation. Rats were divided into 9 groups of eight animals each. Another group of eight rats was subjected to sham operation. Over a period of 6 weeks after operation, each group was orally administered either 1α-hdyroxy vitamin D₃, 1α-hydroxy vitamin D₇ or 1α-hydroxy vitamin D₄ dissolved in 0.5% ethanol/porpyleneglycol (vehicle) at the frequency of 5 days per week. The sham operated group and control group were orally administered the vehicle alone. The next day after final administration, rats were killed, blood was drawn from abdominal cave and right femur was extracted. The bone volume of femur was measured in accordance with Archimedes' principle. After heat treatment at 700°C for 24 hrs, the weight of bone ash was measured. From these measured values, the bone density (ash weight/volume) of each femur was calculated. Serum calcium concentration was determined according to usual method.

Row | Compound | Serum calcium concentration (0.02 µg/kg/day oral) [mg/dL] | Bone density (0.02 µg/kg/day oral) [mg/mm^3] | Serum calcium concentration (0.1 µg/kg/day oral) [mg/dL] | Bone density (0.1 µg/kg/day oral) [mg/mm^3] | Serum calcium concentration (0.5 µg/kg/day oral) [mg/dL] | Bone density (0.5 µg/kg/day oral) [mg/mm^3] | Serum calcium concentration (2.5 µg/kg/day oral) [mg/dL] | Bone density (2.5 µg/kg/day oral) [mg/mm^3] | increase in bone density | increase in serum calcium concentration | Serum calcium concentration (12.5 µg/kg/day oral) [mg/dL] | Bone density (12.5 µg/kg/day oral) [mg/mm^3]
1 | C=C1/C(=C\C=C2/CCC[C@]3(C)[C@@H]([C@H](C)CCCC(C)C)CC[C@@H]23)C[C@@H](O)C[C@@H]1O [1α-OH-D3, 1α-hydroxy vitamin D₃, reference compound] | 10.8 ± 0.1 | 0.556±0.005 | 11.0 ± 0.1 | 0.545±0.007 | 12.4 ± 0.2 | 0.560±0.006 |  |  |  |  |  | 
2 | C=C1/C(=C\C=C2/CCC[C@]3(C)[C@@H]([C@H](C)CC[C@H](C)C(C)C)CC[C@@H]23)C[C@@H](O)C[C@@H]1O [1α-OH-D4, 1α-hydroxy vitamin D₄] |  |  |  |  | 10.5 ± 0.2 | 0.576±0.006 | 11.0 ± 0.4 | 0.583 ± 0.003 | much greater increase in bone density | lesser increase in serum calcium concentration |  | 
3 | C=C1/C(=C\C=C2/CCC[C@]3(C)[C@@H]([C@H](C)CC[C@@H](C)C(C)C)CC[C@@H]23)C[C@@H](O)C[C@@H]1O [1α-OH-D7, 1α-hydroxy vitamin D₇] |  |  |  |  | 10.5 ± 0.1 | 0.581±0.004 | 10.7 ± 0.3 | 0.585±0.007 | much greater increase in bone density | lesser increase in serum calcium concentration | 10.9 ± 0.5 | 0.589±0.004

— patent publication EP0562497A1, “1 alpha-hydroxy vitamins D7 and D4' processes for the preparation thereof and pharmaceutical compositions” (NISSHIN FLOUR MILLING CO., LTD., priority 1992, dated 1993)
